Measured values taken from the supplement of paper PMC10307832.

What follows are cell lines tested with C1=CC2=C(C=C(C(=C2N=C1)O)N=NC3=CC4=C(C=C3)C=C(C=C4)S(=O)(=O)O)S(=O)(=O)O + CCNC(=O)c1noc(-c2cc(C(C)C)c(O)cc2O)c1-c1ccc(CN2CCOCC2)cc1 [Luminespib] (partner 0.01 µM) (assay: relative viability (nuclei count vs DMSO), 5 days (fraction); higher = more cells survive). Conditions: first compound 8 µM.
Procedure, shortened: (§1)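 Nuclei were stained with Hoechst during a one-step fixation (final 0.05% Triton X-100, 1% formaldehyde, 1 ug/ml Hoechst) carried out 5 days after dosing, then counted on 4× images. The cells, lung cancer lines in 1536-well plates, had been dosed by pin tool the day after seeding with one drug alone or a fixed anchor-drug dose plus five library-drug doses (not always all listed) in √10 steps. Relative viability is the nuclei count in treated wells divided by that in vehicle wells, and each value is the median of duplicate plates.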

Row | Cell Line | relative viability
1 | COR-L 105 | 0.489
2 | LOU-NH91 | 0.341
3 | ChaGo-K-1 | 0.553
4 | NCI-H2170 | 0.895
5 | NCI-H2405 | 0.753
6 | HOP-62 | 0.898
7 | HCC-44 | 1.01
8 | NCI-H522 | 1.11
9 | LU99A | 0.27
10 | BEN | 0.232
11 | HARA | 0.761
12 | SW 900 | 0.163
13 | NCI-H1792 | 0.331
14 | NCI-H1563 | 0.404

Each cell line was assayed with C1=CC2=C(C=C(C(=C2N=C1)O)N=NC3=CC4=C(C=C3)C=C(C=C4)S(=O)(=O)O)S(=O)(=O)O + Cc1nc(Nc2ncc(C(=O)Nc3c(C)cccc3Cl)s2)cc(N2CCN(CCO)CC2)n1 [Dasatinib] (partner 0.075 µM) in the same assay as above. Conditions: first compound 0.08 µM.
Procedure, shortened: as §1

Row | Cell Line | relative viability
15 | NCI-H2342 | 0.297
16 | NCI-H1623 | 0.465
17 | NCI-H727 | 0.454
18 | NCI-H1650 | 0.34
19 | NCI-H1993 | 0.579
20 | SW 1573 | 0.545
21 | NCI-H838 | 0.292
22 | LCLC-103H | 0.537
23 | NCI-H520 | 0.185
24 | NCI-H2126 | 0.711
25 | EMC-BAC-2 | 0.324
26 | NCI-H2085 | 0.277
27 | HCC-366 | 0.765
28 | NCI-H1666 | 0.866
29 | NCI-H596 | 0.651
30 | LK-2 | 0.357
31 | NCI-H2087 | 0.962

Row | Cell Line | relative viability
32 | SK-MES-1 | 0.43
33 | H3255 | 0.346
34 | COR-L23 | 0.523
35 | COR-L 105 | 0.307
36 | LOU-NH91 | 0.579
37 | ChaGo-K-1 | 0.648
38 | NCI-H2170 | 0.636
39 | NCI-H2405 | 0.146
40 | HOP-62 | 0.69
41 | NCI-H522 | 0.91
42 | LU99A | 0.496
43 | BEN | 0.25
44 | HARA | 0.284
45 | SW 900 | 0.596
46 | HCC-78 | 0.404
47 | NCI-H1792 | 0.772
48 | NCI-H1563 | 0.455

Same assay, conditions: first compound 0.253 µM

Row | Cell Line | relative viability
49 | NCI-H2342 | 0.307
50 | NCI-H1623 | 0.519
51 | NCI-H727 | 0.39
52 | NCI-H1650 | 0.315
53 | NCI-H1993 | 0.648
54 | SW 1573 | 0.572
55 | NCI-H838 | 0.25
56 | LCLC-103H | 0.461
57 | NCI-H520 | 0.206
58 | NCI-H2126 | 0.645
59 | EMC-BAC-2 | 0.401
60 | NCI-H2085 | 0.253
61 | HCC-366 | 0.661
62 | NCI-H1666 | 0.755
63 | NCI-H596 | 0.685
64 | LK-2 | 0.33
65 | NCI-H2087 | 0.872

Row | Cell Line | relative viability
66 | SK-MES-1 | 0.35
67 | H3255 | 0.375
68 | COR-L23 | 0.477
69 | COR-L 105 | 0.337
70 | LOU-NH91 | 0.585
71 | ChaGo-K-1 | 0.595
72 | NCI-H2170 | 0.574
73 | NCI-H2405 | 0.226
74 | HOP-62 | 0.657
75 | NCI-H522 | 0.92
76 | LU99A | 0.496
77 | BEN | 0.31
78 | HARA | 0.274
79 | SW 900 | 0.668
80 | HCC-78 | 0.337
81 | NCI-H1792 | 0.669
82 | NCI-H1563 | 0.478

Same assay, conditions: first compound 0.8 µM

Row | Cell Line | relative viability
83 | NCI-H2342 | 0.286
84 | NCI-H1623 | 0.575
85 | NCI-H727 | 0.352
86 | NCI-H1650 | 0.338
87 | NCI-H1993 | 0.633
88 | SW 1573 | 0.417
89 | NCI-H838 | 0.283
90 | LCLC-103H | 0.505
91 | NCI-H520 | 0.204
92 | NCI-H2126 | 0.64
93 | EMC-BAC-2 | 0.336
94 | NCI-H2085 | 0.254
95 | HCC-366 | 0.654
96 | NCI-H1666 | 0.793
97 | NCI-H596 | 0.554
98 | LK-2 | 0.204
99 | NCI-H2087 | 0.715

Row | Cell Line | relative viability
100 | SK-MES-1 | 0.353
101 | H3255 | 0.297
102 | COR-L23 | 0.442
103 | COR-L 105 | 0.445
104 | LOU-NH91 | 0.53
105 | ChaGo-K-1 | 0.599
106 | NCI-H2170 | 0.659
107 | NCI-H2405 | 0.208
108 | HOP-62 | 0.676
109 | NCI-H522 | 0.746
110 | LU99A | 0.474
111 | BEN | 0.296
112 | HARA | 0.274
113 | SW 900 | 0.619
114 | HCC-78 | 0.426
115 | NCI-H1792 | 0.458
116 | NCI-H1563 | 0.492

Same assay, conditions: first compound 2.53 µM

Row | Cell Line | relative viability
117 | NCI-H2342 | 0.308
118 | NCI-H1623 | 0.547
119 | NCI-H727 | 0.412
120 | NCI-H1650 | 0.332
121 | NCI-H1993 | 0.594
122 | SW 1573 | 0.513
123 | NCI-H838 | 0.3
124 | LCLC-103H | 0.458
125 | NCI-H520 | 0.157
126 | NCI-H2126 | 0.713
127 | EMC-BAC-2 | 0.36
128 | NCI-H2085 | 0.208
129 | HCC-366 | 0.649
130 | NCI-H1666 | 0.816
131 | NCI-H596 | 0.727
132 | LK-2 | 0.33
133 | NCI-H2087 | 0.847

Row | Cell Line | relative viability
134 | SK-MES-1 | 0.531
135 | H3255 | 0.34
136 | COR-L23 | 0.582
137 | COR-L 105 | 0.348
138 | LOU-NH91 | 0.597
139 | ChaGo-K-1 | 0.481
140 | NCI-H2170 | 0.633
141 | NCI-H2405 | 0.201
142 | HOP-62 | 0.588
143 | NCI-H522 | 0.788
144 | LU99A | 0.555
145 | BEN | 0.347
146 | HARA | 0.296
147 | SW 900 | 0.52
148 | HCC-78 | 0.352
149 | NCI-H1792 | 0.84
150 | NCI-H1563 | 0.397

Same assay, conditions: first compound 8 µM

Row | Cell Line | relative viability
151 | NCI-H2342 | 0.348
152 | NCI-H1623 | 0.251
153 | NCI-H727 | 0.345
154 | NCI-H1650 | 0.227
155 | NCI-H1993 | 0.566
156 | SW 1573 | 0.273
157 | NCI-H838 | 0.29
158 | LCLC-103H | 0.48
